Patent US6747008B1, “Methods for treating and preventing alopecia” (University of Southern California, priority 2000, dated 2004)
Entries after “also recorded” stand apart in the source; their conditions may differ. Where no end group is shown, it is not given here. [ ]: non-standard residue; d: D form. Nle = CCCC[C@H](N)C(=O)O

B1: Filgratim: filgrastim (NEUPOGEN, Amgen, Inc.), comparator arm (protein, chains of the INN, looked up)
chain: MTPLGPASSLPQSFLLKCLEQVRKIQGDGAALQEKLCATYKLCHPEELVLLGHSLGIPWAPLSSCPSQALQLAGCLSQLHSGLFLYQGLLQALEGISPELGPTLDTLQLDVADFATTIWQQMEELGMAPALQPTQGAMPAFASAFQRRAGGVLVASHLQSFLEVSYRVLRHLAQP

Assays:
[1] = tested on: patients with newly diagnosed breast cancer receiving doxorubicin and cyclophosphamide; assay: Phase I/II dose escalation study of AII(1-7) before and after chemotherapy; adverse event alopecia; assay type: in vivo, human; details: for incidents of alopecia associated with chemotherapy: breast cancer patients, doxorubicin 60 mg/m2 and cyclophosphamide 600 mg/m2, subcutaneous once daily
Procedure: Dose escalation within an individual patient was not permitted.
Following the rest period, a chemotherapy regimen containing doxorubicin 60 mg/m^2 and cyclophosphamide 600 mg/m^2 was initiated.
An adverse event (AE) was considered any unfavorable or unintended change in structure, function, signs, or symptoms temporally associated with the use of a medicinal product experienced by a person administered a pharmaceutical product, whether or not a causal relationship with the product has been established. During the conduct of this clinical trial, study personnel asked open-ended questions to obtain information about AEs at every visit. Signs and symptoms were graded by the Investigator using the WHO toxicity criteria. For alopecia, no notation was made if there was no hair loss. If there was hair loss, it was graded as mild (1) or pronounced (2). In this trial, the incidents of alopecia associated with chemotherapy were as follows: […]

[2] = tested on: C57BL/Ksj-db/db diabetic mice; assay: Full-thickness excision model, mouse: hair follicle regeneration; assay type: in vivo; details: day 26, topical in 10% CMC or subcutaneous, not observed in placebo
Procedure: (§1) Materials: The viscous vehicle was prepared from carboxymethylcellulose (CMC sodium salt, low viscosity, Sigma, St. Louis, Mo., Lot Number 34H0310) consisting of 10% low viscosity CMC in 0.05 M phosphate buffer, pH. 7.2, and sterilized by autoclaving followed by mixing with sterile peptide solutions. For subcutaneous administration, the peptides were dissolved in Lactated Ringers' Solution. […] 9GD (SEQ ID NO:41) was prepared by the Microchemical Core Laboratory at USC.
(§2) Surgical model: During the experimental period, C57BL/Ksj-db/db diabetic mice (Jackson Laboratories, Cold Spring Harbor, Me.) or Sprague Dawley rats were housed one per cage and maintained in a central animal care facility with a 12-hour light/dark cycle. Water and standard rodent laboratory chow were supplied ad libitum. All animals used for this study received humane care as defined by the National Research Council's criteria for humane care. The study protocols were approved by the University of Southern California's Institutional Animal Care and Use Committee before initiation of the studies.
Mouse Model: On day 0, C57BL/Ksj-db/db diabetic mice were anesthetized with intramuscular ketamine/xylazine and backs were swabbed with 70% isopropyl alcohol followed by betadine. Afterwards, a 1.3 cm diameter full thickness skin area was excised on the back of each mouse. […]

Sprague Dawley rats = assay: Full-thickness excision model, rat: hair follicle regeneration; assay type: in vivo; details: day 21, topical in 10% CMC or subcutaneous, not observed in placebo
Procedure: as §1, §2
Rat Model: Female Sprague-Dawley rats, 175 to 200 grams, were anesthetized with intramuscular ketamine/rompun. The backs of the rats were shaved with animal clippers, scrubbed with betadine, and washed with 70% alcohol before surgery. […]

C57BL/6 mice = assay: Hair cycle synchronized animal model, cyclophosphamide induced alopecia; assay type: in vivo, mouse; details: for mice with observable hair regrowth: day 13, 30 μg/kg/day, control 1 of 5; for percentage of the area with hair regrowth: day 13, FIG. 1; for number of mature hair follicles present: day 19, histology, FIG. 2
Text: Adolescent, 6- to 8-week-old female, C57BL/6 mice (Simonson, Gilroy, Calif.) with normal, black fur were purchased and housed in community cages with 12-hour light cycles with mouse chow and water ad libitum. In contrast to the mosaic cycling of human hair follicles, these mice display a unique hair cycle synchronization, which makes them a most productive model for hair research. Only mice in the resting stage of the hair cycle (telogen) are used for these studies. In the truncal skin of mice all melanocytes reside in hair follicles, and pigment production (melanogenesis) occurs exclusively in anagen follicles. Thus, telogen C57BL/6 mice can be recognized reliably by the homogeneously pink color of their back skin.
Predictable and highly synchronized anagen development can only be achieved with anagen induction by depilation, as opposed to spontaneous anagen development. Thus, anagen was induced in the back skin of telogen mice by depilation so that, at the start of pharmacological manipulation, all hair follicles in the depilated back skin area of all mice are in exactly the same stage of anagen development. As soon as anagen VI had been reached, all mice were injected once with a high dose of cyclophosphamide. In all experiments, control and test mice were then compared for signs of hair loss, for skin color changes indicating the effect of test drugs on hair cycling and follicle melanogenesis, and for hair regrowth.
Under ketamine hydrochloride-induced general anesthesia, telogen mice that had gone through several postnatal hair cycles were induced to enter anagen by depilation of all telogen hair shafts. This was done by applying a melted wax/rosin mixture to the back skin and by peeling off this mixture after hardening. By this technique, all depilated telogen hair follicles immediately begin to transform into anagen follicles with their associated melanogenesis.
As soon as early anagen VI had been reached by these induced anagen follicles, ie, on day 9 postdepilation (p.d.), a single intraperitoneal injection of cyclophosphamide was given (150 mg/kg).
Chemotherapy induced alopecia was manipulated pharmacologically by administration of the active agents of the present invention, topically or by subcutaneous injection once daily until necropsy. Pigmentation, hair regrowth, and follicle histology are analyzed as indicated. Particular attention is paid to any retarding or enhancing effects on the degree of alopecia, to the hair regrowth pattern, and to the pigmentation of regrowing hair shafts.
After the cyclophosphamide injection on day 9 p.d, the back skin of test and control mice were examined daily for a period of up to 32 days for signs of alopecia and color conversion from black to pink, indicating the progression of anagen follicles in the hair cycle via catagen to telogen. This color change results from the abrupt termination of melanogenesis in follicular melanocytes very early during catagen development. Visible changes were recorded and photodocumented. Starting 1 week after CYP injection, the skin was examined daily for signs of hair regrowth, skin repigmentation, and the quality of hair shaft pigmentation.
In C57BL/6 mice of this age group, depilation induced anagen follicles spontaneously enter catagen between days 17 and 20 p.d., mostly around day 18. The development of catagen follicles was indicated macroscopically by a change in skin color from black to light gray and occurs in large waves, appearing first in the neck region. then on the flanks, until finally the tail region enters catagen. Within 1 to 2 days after catagen induction, the follicle enters telogen, as indicated by a skin color change from gray to pink. […]

[3] = Fragments tested for effectiveness (test not specified)

Molecule | incidents of alopecia associated with chemotherapy [1] [%] | effect on alopecia in chemotherapy patients relative to control ([1]; chemotherapy patients) | microscopic examination of wound site: new adnexal structures (new hair follicles) [2] | microscopic examination of wound site: new adnexal structures (new hair follicles) (Sprague Dawley rats) | mice with observable hair regrowth (C57BL/6 mice) | percentage of the area with hair regrowth (C57BL/6 mice) | number of mature hair follicles present (C57BL/6 mice) | effectiveness [3]
Asp-Arg-Val-Tyr-Ile-His-Pro [AII(1-7)] | 46 | significantly decreased alopecia | formation of new adnexal structures | formation of new adnexal structures | 4 of 5 | significantly increased | increased | –
DR(nor)YIHP (DR[Nle]YIHP) [Analogue 9GD] | – | – | formation of new adnexal structures | formation of new adnexal structures | 5 of 5 | significantly increased | increased | –
His-Pro-Phe (HPF) [AII(6-8)] | – | – | – | – | – | – | – | not to be effective
Tyr-Ile-His-Pro-Phe (YIHPF) [AII(4-8)] | – | – | – | – | – | – | – | not to be effective; also recorded: ineffective
B1 | 40 | – | – | – | – | – | – | –
